In ChEMBL document CHEMBL4368936, “Discovery and structure-activity relationship study of phthalimide-phenylpyridine conjugate as inhibitor of Wnt pathway” (Bioorg Med Chem Lett, 2019):

Legend:
Mus musculus = organism: Mus musculus; assay: Inhibition of Wnt/beta-catenin pathway in mouse L Wnt3A cells at 10 uM after 48 hrs by TOP-flash dual reporter gene assay relative to control; assay type: cell-based
[1] = Inhibition of Wnt/beta-catenin pathway in mouse L Wnt3A cells after 48 hrs by TOP-flash dual reporter gene assay; assay type: cell-based; conditions: L Wnt-3A

IC50 [1]	Compound	inhibition (Mus musculus)
> 10000 nM	Cc1cccc2c1C(=O)N(C(C)C(=O)Nc1ccc(-c3ccccc3)cn1)C2=O (stereo not given)	39%
	O=C(CCCN1C(=O)c2ccc(Br)cc2C1=O)Nc1ccc(-c2ccccc2)cn1	18%
	O=C(CCCN1C(=O)c2cccc([N+](=O)[O-])c2C1=O)Nc1ccc(-c2ccccc2)cn1	17%
	O=C(CCCN1C(=O)c2ccc(F)cc2C1=O)Nc1ccc(-c2ccccc2)cn1	20%
	O=C(CCCN1C(=O)c2c(F)ccc(F)c2C1=O)Nc1ccc(-c2ccccc2)cn1	37%
	CC(C)(C)c1ccc2c(c1)C(=O)N(CCCC(=O)Nc1ccc(-c3ccccc3)cn1)C2=O	23%
	O=C(CCCN1C(=O)c2ccc(C#Cc3ccccc3)cc2C1=O)Nc1ccc(-c2ccccc2)cn1	7%
	O=C(CCCN1C(=O)c2ccc(F)c(F)c2C1=O)Nc1ccc(-c2ccccc2)cn1	21%
	O=C(CCCN1C(=O)c2cccc(F)c2C1=O)Nc1ccc(-c2ccccc2)cn1	44%
> 10000 nM	Cc1cccc2c1C(=O)N(CCC(=O)Nc1ccc(-c3ccccc3)cn1)C2=O	29%
	O=C(CCCN1C(=O)c2c(Cl)c(Cl)c(Cl)c(Cl)c2C1=O)Nc1ccc(-c2ccccc2)cn1	-5%
0.57 nM	Cc1cc(-c2ncc(CC(=O)Nc3ccc(-c4cnccn4)cn3)cc2C)ccn1 [WNT-974]	93%
	O=C(CCCN1C(=O)c2cccc(Cl)c2C1=O)Nc1ccc(-c2ccccc2)cn1	46%
	O=C(CCCN1C(=O)c2ccccc2C1=O)Nc1ccc(-c2ccccc2)cn1	34%
280 nM	Cc1cccc2c1C(=O)N(CC(=O)Nc1ccc(-c3ccccc3)cn1)C2=O	76%
	O=C(CCCN1C(=O)c2cc(Cl)c(Cl)cc2C1=O)Nc1ccc(-c2ccccc2)cn1	-8%
2790 nM	Cc1cccc2c1C(=O)N(CCCC(=O)Nc1ccc(-c3ccccc3)cn1)C2=O	61%
	Cc1ccc2c(c1)C(=O)N(CCCC(=O)Nc1ccc(-c3ccccc3)cn1)C2=O	20%
	O=C(CCCN1C(=O)c2ccc(Cl)cc2C1=O)Nc1ccc(-c2ccccc2)cn1	22%
	O=C(CCCN1C(=O)c2ccc([N+](=O)[O-])cc2C1=O)Nc1ccc(-c2ccccc2)cn1	19%
